Experimental data reported in US11293931B2, “Quantitative profiling of progesterone metabolites for the prediction of spontaneous preterm delivery” (Indiana University Research and Technology Corporation, priority 2016, dated 2022).

Tests used:
CALM2 = assay: Gene array of calmodulin expression with progestogen treatment: CALM2; assay type: cell-based, human; details: primary myometrial cells treated with a 1:10 M/G ratio; for fold increase in CALM2 expression: compared to DMSO treated controls (FIG. 11)
Description: (§1) The effect of progesterone or HPC treatment on calmodulin gene expression (CALM1, CALM2, CALM3) was further explored. Primary myometrial cells were treated with a 1:10 M/G ratio and a gene array used to assess calmodulin expression. […] The fold change in total CALM expression (trend line for all three isoforms) was approximately half with HPC treatment (4.4-fold) compared to progesterone (8.9-fold) or control treatments (8.3-fold).

CALM1 = assay: Gene array of calmodulin expression with progestogen treatment: CALM1; assay type: cell-based, human; details: primary myometrial cells treated with a 1:10 M/G ratio, compared to DMSO treated controls (FIG. 11)
Description: as §1

CALM3 = assay: Gene array of calmodulin expression with progestogen treatment: CALM3; assay type: cell-based, human; details: primary myometrial cells treated with a 1:10 M/G ratio, compared to DMSO treated controls (FIG. 11)
Description: as §1

total CALM expression = assay: Gene array of calmodulin expression with progestogen treatment: total CALM (all three isoforms); assay type: cell-based, human; details: primary myometrial cells treated with a 1:10 M/G ratio
Description: as §1

[1] = women with a prior history of spontaneous preterm birth; cited from earlier work

SMILES	reduction in CALM2 expression compared to progesterone treated cells (CALM2) [%]	fold increase in CALM2 expression (CALM2) [fold]	change in CALM1 expression (CALM1)	change in CALM3 expression (CALM3)	fold change in total CALM expression (trend line for all three isoforms) (total CALM expression) [fold]	reduction in the risk of recurrent sPTB [1]
CCCCCC(=O)O[C@]1(C(C)=O)CC[C@H]2[C@@H]3CCC4=CC(=O)CC[C@]4(C)[C@H]3CC[C@@]21C [HPC, 17α-hydroxyprogesterone caproate]	~30	9	modest decreases	modest decreases	4.4	30-40%
CC(=O)[C@H]1CC[C@H]2[C@@H]3CCC4=CC(=O)CC[C@]4(C)[C@H]3CC[C@]12C [progesterone]		13	modest decreases	modest decreases	8.9	
